The subject of this data set is human maximum recommended daily dose, FDA database. Description: DSSTox (FDAMDD) FDA Maximum (Recommended) Daily Dose Database. The settings on record: hits give low values. Put shortly:
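MRDD values come from clinical trials with daily oral dosing, usually for 3–12 months, for the average adult, in mg/day converted to mg/kg-bw/day assuming 60 kg. Antineoplastic mg/m2 doses are divided by 37. Activity score maps log10(1/MRDD mmol) onto 1–100.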

[1] abbreviates: TherapeuticCategory: sedative, hypnotic.
[2] abbreviates: TherapeuticCategory: antipsychotic.
Setting [3] is: TherapeuticCategory: anticholinergic.
[4] abbreviates: TherapeuticCategory: anti inflammatory.
Where [5] appears, read: TherapeuticCategory: antibacterial.
[6] abbreviates: TherapeuticCategory: antihypertensive.
Setting [7] is: TherapeuticCategory: anesthetic.

In PubChem BioAssay AID1195 (EPA DSSTox, 2008) one finds maximum recommended daily dose (mmol/kg-bw/day) data, which are given here for 67 compounds.

Take `CC(=O)N[C@@H](CS)C(=O)O`: the maximum recommended daily dose (mmol/kg-bw/day) (TherapeuticCategory: mucolytic, corneal vulnerary) was 0.0613.
Take `C#CC1(OC(N)=O)CCCCC1`: the maximum recommended daily dose (mmol/kg-bw/day) under setting [1] is 0.0999.
`CN(C)CCCN1c2ccccc2Sc2ccc(C(F)(F)F)cc21`: under setting [2], the maximum recommended daily dose (mmol/kg-bw/day) is 0.00709.
Consider `CC(=O)c1ccc(S(=O)(=O)NC(=O)NC2CCCCC2)cc1`, for which, where the note is “TherapeuticCategory: antidiabetic”, the maximum recommended daily dose (mmol/kg-bw/day) was 0.0771.
In the case of `CCCN(CCC)C(=O)C(CCC(=O)O)NC(=O)c1ccccc1` (configuration not stated), the maximum recommended daily dose (mmol/kg-bw/day) under setting [3] was 0.0798.
For `CCN(CCO)CCn1c(Cc2ccccc2)nc2c1c(=O)n(C)c(=O)n2C`, for the setting “TherapeuticCategory: bronchodilator”, the maximum recommended daily dose (mmol/kg-bw/day) was 0.0778.
For `C(=C\c1ccccc1)/CN1CCN(C(c2ccccc2)c2ccccc2)CC1`, the maximum recommended daily dose (mmol/kg-bw/day) (TherapeuticCategory: antihistaminic, peripheral vasodilator) was 0.0102.
Consider `C=CCN(C1=NCCN1)c1c(Cl)cccc1Cl`, for which, for the setting “TherapeuticCategory: antiarrhythmic”, the maximum recommended daily dose (mmol/kg-bw/day) is 0.00492.
Take `CC(C)(N)Cc1ccc(Cl)cc1`: the maximum recommended daily dose (mmol/kg-bw/day) (TherapeuticCategory: anorexic) is 0.00588.
For `O=C(O)CCC(=O)c1ccc(C2CCCCC2)c(Cl)c1`, under setting [4], the maximum recommended daily dose (mmol/kg-bw/day) is 0.0678.
`CCN(C(C)=O)c1cccc(-c2ccnc3c(C#N)cnn23)c1`: for the setting “TherapeuticCategory: hypnotic, sedative”, the maximum recommended daily dose (mmol/kg-bw/day) is 0.00164.
In the case of `CC1CCN(CCCC(=O)c2ccc(F)cc2)CC1`, for the setting “TherapeuticCategory: neuroleptic”, the maximum recommended daily dose (mmol/kg-bw/day) is 0.0253.
Take `CC1(C)S[C@@H]2[C@H](NC(=O)[C@H](NC(=O)N3CCN(S(C)(=O)=O)C3=O)c3ccccc3)C(=O)N2[C@H]1C(=O)O`: under setting [5], the maximum recommended daily dose (mmol/kg-bw/day) was 0.495.
On to `CC1=C(C(=O)O)N2C(=O)[C@@H](NC(=O)[C@H](N)C3=CCC=CC3)[C@H]2SC1`, for which the maximum recommended daily dose (mmol/kg-bw/day) under setting [5] is 0.191.
Take `N=C(N)c1ccc(/C=C/c2ccc(C(=N)N)cc2O)cc1`: the maximum recommended daily dose (mmol/kg-bw/day) (TherapeuticCategory: antiprotozoal) is 0.0149.
For `CCNCC(O)c1cccc(O)c1` (configuration not stated), for the setting “TherapeuticCategory: antihypotensive”, the maximum recommended daily dose (mmol/kg-bw/day) was 0.0046.
As for `CCn1cc(C(=O)O)c(=O)c2cc(F)c(N3CCNCC3)nc21`, the maximum recommended daily dose (mmol/kg-bw/day) under setting [5] was 0.0624.
Turning to `CCNNC(=O)[C@@H]1[C@H](c2cc(OC)c(OC)c(OC)c2)c2cc3c(cc2[C@H](O)[C@H]1CO)OCO3`, the maximum recommended daily dose (mmol/kg-bw/day) (TherapeuticCategory: antineoplastic) is 0.00702.
With `O=C(O)[C@H]1/C(=C/CO)O[C@@H]2CC(=O)N21`, under setting [5], the maximum recommended daily dose (mmol/kg-bw/day) is 0.0314.
On to `COc1ccc(CCN2CCC(Nc3nc4ccccc4n3Cc3ccc(F)cc3)CC2)cc1`, for which the maximum recommended daily dose (mmol/kg-bw/day) (TherapeuticCategory: antiallergic, antiarrhythmic) was 0.000364.
Turning to `CCC(C)(C)N=C(N)NC#N`, the maximum recommended daily dose (mmol/kg-bw/day) under setting [6] was 0.0674.
As for `CN(C)CCOC(c1ccc(Cl)cc1)c1ccccn1` (configuration not stated), the maximum recommended daily dose (mmol/kg-bw/day) (TherapeuticCategory: antihistaminic) is 0.00138.
With `CCOC(=O)CCC(=O)O[C@H]1[C@H](O[C@@H]2[C@@H](C)[C@H](O[C@H]3C[C@@](C)(OC)[C@@H](O)[C@H](C)O3)[C@@H](C)C(=O)O[C@H](CC)[C@@](C)(O)[C@H](O)[C@@H](C)C(=O)[C@H](C)C[C@@]2(C)O)O[C@H](C)C[C@@H]1N(C)C`, the maximum recommended daily dose (mmol/kg-bw/day) under setting [5] was 0.0774.
Turning to `NC(N)=NS(=O)(=O)c1ccc(N)cc1`, under setting [5], the maximum recommended daily dose (mmol/kg-bw/day) is 0.0934.
Regarding `CN1C(=O)C(O)N=C(c2ccccc2)c2cc(Cl)ccc21` (configuration not stated), under setting [1], the maximum recommended daily dose (mmol/kg-bw/day) is 0.000831.
As for `COC1CC(=C(c2cccs2)c2cccs2)C[N+](C)(C)C1` (configuration not stated), the maximum recommended daily dose (mmol/kg-bw/day) under setting [3] is 0.00375.
Regarding `CN1CCCCC1CCN1c2ccccc2Sc2ccc(S(C)=O)cc21` (configuration not stated), under setting [2], the maximum recommended daily dose (mmol/kg-bw/day) was 0.0129.
Take `CCCN(CCC)S(=O)(=O)c1ccc(C(=O)O)cc1`: under “TherapeuticCategory: uricosuric”, the maximum recommended daily dose (mmol/kg-bw/day) is 0.0585.
Turning to `O=C1N(Cc2ccccc2)C2C[S+]3CCCC3C2N1Cc1ccccc1` (configuration not stated), the maximum recommended daily dose (mmol/kg-bw/day) under setting [6] was 0.000112.
For the compound `CC(=O)Nc1c(I)cc(I)c(C(=O)O)c1I`, the maximum recommended daily dose (mmol/kg-bw/day) (TherapeuticCategory: diagnostic aid) is 0.18.
Turning to `CN1CCCC(n2nc(Cc3ccc(Cl)cc3)c3ccccc3c2=O)CC1` (configuration not stated), the maximum recommended daily dose (mmol/kg-bw/day) (TherapeuticCategory: antiallergic, antiasthmatic, antihistaminic) was 0.000348.
With `OC[C@H]1O[C@H](O[C@H]2[C@H](O)[C@@H](O)[C@H](O)O[C@@H]2CO)[C@H](O)[C@@H](O)[C@@H]1O`, where the note is “TherapeuticCategory: none”, the maximum recommended daily dose (mmol/kg-bw/day) is 0.292.
Regarding `CC[C@H](CC[C@@H](C)[C@H]1CC[C@H]2[C@@H]3CC=C4C[C@@H](O)CC[C@]4(C)[C@H]3CC[C@]12C)C(C)C`, the maximum recommended daily dose (mmol/kg-bw/day) (TherapeuticCategory: anticholinesteremic) is 0.241.
On to `COC1=C(C(=O)O)N2C(=O)[C@@H](NC(=O)[C@H](N)C3=CCC=CC3)[C@H]2SC1`, for which, under setting [5], the maximum recommended daily dose (mmol/kg-bw/day) was 0.0911.
`Cc1ccc(Cl)c(OCC(O)CNC(C)(C)C)c1` (configuration not stated): the maximum recommended daily dose (mmol/kg-bw/day) (TherapeuticCategory: antihypertensive, antianginal, antiarrhythmic, antiglaucomic) was 0.0245.
As for `CS(=O)(=O)c1ccc([C@@H](O)[C@@H](CO)NC(=O)C(Cl)Cl)cc1`, the maximum recommended daily dose (mmol/kg-bw/day) under setting [5] was 0.14.
With `CCc1cc2c(s1)N(C)C(=O)CN=C2c1ccccc1Cl`, the maximum recommended daily dose (mmol/kg-bw/day) (TherapeuticCategory: anxiolytic) is 0.00314.
Consider `O=P(O)(O)OCC(O)CO` (configuration not stated), for which the maximum recommended daily dose (mmol/kg-bw/day) (TherapeuticCategory: none) is 0.388.
For `OCCN1CCN(CCCN2c3ccccc3Sc3ccc(Cl)cc32)CC1`, under “TherapeuticCategory: antipsychotic, dopamine receptor antagonist”, the maximum recommended daily dose (mmol/kg-bw/day) was 0.00099.
`CCC(=O)c1ccc2c(c1)N(CCCN1CCN(CCO)CC1)c1ccccc1S2`: the maximum recommended daily dose (mmol/kg-bw/day) under setting [2] was 0.0157.
As for `Cc1cc(O)c2ccccc2c1O`, for the setting “TherapeuticCategory: prothrombogenic vitamin”, the maximum recommended daily dose (mmol/kg-bw/day) was 0.000959.
As to `COc1cc(NS(=O)(=O)c2ccc(N)cc2)nc(C)n1`, the maximum recommended daily dose (mmol/kg-bw/day) under setting [5] is 0.113.
On to `CC(CCc1ccccc1)NCC(O)c1ccc(O)c(C(N)=O)c1` (configuration not stated), for which the maximum recommended daily dose (mmol/kg-bw/day) under setting [6] was 0.122.
With `O=S(O)CNc1ccc(S(=O)(=O)c2ccc(NCS(=O)O)cc2)cc1`, the maximum recommended daily dose (mmol/kg-bw/day) under setting [5] is 0.0111.
As to `O=C1CN=C(c2ccccc2)c2cc([N+](=O)[O-])ccc2N1`, for the setting “TherapeuticCategory: anticonvulsant, hypnotic”, the maximum recommended daily dose (mmol/kg-bw/day) is 0.00118.
With `COc1ccc2c(c1)c(CC(=O)OCC(=O)O)c(C)n2C(=O)c1ccc(Cl)cc1`, under setting [4], the maximum recommended daily dose (mmol/kg-bw/day) was 0.00721.
Turning to `CC1OC(C)OC(C)O1` (configuration not stated), the maximum recommended daily dose (mmol/kg-bw/day) under setting [1] is 1.89.
For the compound `CCN(CC)C(=O)[C@@H]1C=C2c3cccc4[nH]cc(c34)C[C@H]2N(C)C1`, the maximum recommended daily dose (mmol/kg-bw/day) (TherapeuticCategory: antipsychotic, seratonin receptor antagonist) was 3.86e-05.
For the compound `OC[C@@H](O)[C@H]1O[C@@H]2O[C@H](C(Cl)(Cl)Cl)O[C@@H]2[C@H]1O`, the maximum recommended daily dose (mmol/kg-bw/day) under setting [1] is 0.0269.
With `CC1(C)S[C@@H]2[C@H](N3C(=O)C(c4ccccc4)NC3(C)C)C(=O)N2[C@H]1C(=O)O` (some centres not stated), the maximum recommended daily dose (mmol/kg-bw/day) under setting [5] was 0.0855.
As for `C[C@]12CC[C@H](O)CC1=CC[C@@H]1[C@@H]2CC[C@]2(C)C(=O)CC[C@@H]12`, for the setting “TherapeuticCategory: androgen”, the maximum recommended daily dose (mmol/kg-bw/day) was 0.0115.
For the compound `COC(=O)C1=C(C)NC(C)=C(C(=O)O[C@@H]2CCCN(Cc3ccccc3)C2)[C@@H]1c1cccc([N+](=O)[O-])c1`, for the setting “TherapeuticCategory: antihypertensive, Ca channel blocker”, the maximum recommended daily dose (mmol/kg-bw/day) was 0.000263.
With `CCOc1ccc2nc(S(N)(=O)=O)sc2c1`, the maximum recommended daily dose (mmol/kg-bw/day) (TherapeuticCategory: carbonic anhydrase inhibitor, diuretic) is 0.0322.
`CC[C@H]1OC(=O)[C@H](C)[C@@H](O[C@H]2C[C@@](C)(OC)[C@@H](O)[C@H](C)O2)[C@H](C)[C@@H](O[C@@H]2O[C@H](C)C[C@H](N(C)C)[C@H]2OC(C)=O)[C@](C)(O)C[C@@H](C)C(=O)[C@H](C)[C@@H](O)[C@]1(C)O`: the maximum recommended daily dose (mmol/kg-bw/day) under setting [5] was 0.0629.
With `CCN(CC)C(=S)SSC(=S)N(CC)CC`, where the note is “TherapeuticCategory: alcohol deterrent”, the maximum recommended daily dose (mmol/kg-bw/day) is 0.0281.
In the case of `C[C@@H]1[C@H](O)[C@@H](C)/C=C/C=C/C=C/C=C/C=C/C=C/C=C/[C@H](O[C@@H]2O[C@H](C)[C@@H](O)[C@H](N)[C@@H]2O)C[C@@H]2O[C@](O)(C[C@@H](O)C[C@@H](O)[C@H](O)CC[C@@H](O)C[C@@H](O)CC(=O)O[C@H]1C)C[C@H](O)[C@H]2C(=O)O`, for the setting “TherapeuticCategory: antifungal”, the maximum recommended daily dose (mmol/kg-bw/day) was 0.00162.
As for `CC(=O)OC1C([N+]2(C)CCCCC2)C[C@H]2[C@@H]3CC[C@H]4C[C@H](OC(C)=O)C(N5CCCCC5)C[C@]4(C)[C@H]3CC[C@]12C` (some centres not stated), the maximum recommended daily dose (mmol/kg-bw/day) (TherapeuticCategory: skeletal muscle relaxant) was 0.000157.
Take `Clc1ccc2c(c1)C(c1ccccc1)=NCc1nncn1-2`: under setting [1], the maximum recommended daily dose (mmol/kg-bw/day) was 0.000113.
For `CCCOC(=O)c1ccc(O)cc1`, the maximum recommended daily dose (mmol/kg-bw/day) (TherapeuticCategory: pharmaceutic aid) was 0.0555.
Take `O=C1Cc2cc(CCN3CCN(c4nsc5ccccc45)CC3)c(Cl)cc2N1`: for the setting “TherapeuticCategory: antipsychotic, dopamine receptor antagonist, seratonin receptor antagonist”, the maximum recommended daily dose (mmol/kg-bw/day) was 0.00647.
On to `NC[C@@H]1O[C@H](O[C@H]2[C@@H](O)[C@H](O[C@@H]3[C@@H](O)[C@H](N)C[C@H](N)[C@H]3O[C@H]3O[C@H](CO)[C@@H](O)C[C@H]3N)O[C@@H]2CO)[C@H](N)[C@@H](O)[C@@H]1O[C@H]1O[C@H](CO)[C@@H](O)[C@H](O)[C@@H]1O`, for which the maximum recommended daily dose (mmol/kg-bw/day) under setting [5] is 0.0219.
Turning to `NNc1nncc2ccccc12`, the maximum recommended daily dose (mmol/kg-bw/day) under setting [6] was 0.0208.
For `CNCCC=C1c2ccccc2CCc2ccccc21`, the maximum recommended daily dose (mmol/kg-bw/day) (TherapeuticCategory: antidepressant) is 0.00634.
Take `NCCCC(O)(P(=O)(O)O)P(=O)(O)O`: the maximum recommended daily dose (mmol/kg-bw/day) (TherapeuticCategory: antiosteoporotic) is 0.00268.
In the case of `CC(C)c1cccc(C(C)C)c1O`, the maximum recommended daily dose (mmol/kg-bw/day) under setting [7] is 0.014.
Consider `C=CCC1(C(C)C#CCC)C(=O)NC(=O)N(C)C1=O` (configuration not stated), for which the maximum recommended daily dose (mmol/kg-bw/day) under setting [7] was 0.00762.
Take `CN(C)C(=O)Oc1cccc([N+](C)(C)C)c1`: the maximum recommended daily dose (mmol/kg-bw/day) (TherapeuticCategory: cholinergic) was 0.028.
